According to US20150152035A1, “COSMETIC USE OF SALICYLIC ACID DERIVATIVES” (Avon Products, Inc,, priority 2013, published 2015):

Tests used:
[1] = molecular target: T1, recombinant human (rh) KLK5 protease (Homo sapiens, UniProt Q9Y337); test: Enzymatic activity of Kallikrein 5 (KLK5), fluorogenic peptide substrate Boc-V-P-R-AMC; format: biochemical; details: for KLK5 activity compared to that of salicylic acid: relative to salicylic acid; for stimulation of KLK5 enzymatic activity: rhKLK5 pre-incubated with test compound 60 seconds, rate of substrate cleavage
T1 construct: purchased R&D Systems 1108-SE
T1 sequence (Q9Y337 23-293): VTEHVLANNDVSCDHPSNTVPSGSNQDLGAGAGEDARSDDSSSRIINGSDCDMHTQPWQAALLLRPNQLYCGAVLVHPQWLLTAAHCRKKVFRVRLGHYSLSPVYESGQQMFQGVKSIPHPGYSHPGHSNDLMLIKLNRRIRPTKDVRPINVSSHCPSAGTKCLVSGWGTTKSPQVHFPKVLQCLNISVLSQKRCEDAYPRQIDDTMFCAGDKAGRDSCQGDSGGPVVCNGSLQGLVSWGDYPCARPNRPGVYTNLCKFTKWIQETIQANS
Source text: In the stratum corneum, skin's outermost layer, cell-to-cell cohesion depends primarily on proteins known as the corneodesmosomes. During skin remodeling and renewal dead cells are shed from the skin surface by the action of native proteases that break down the corneodesmosomes. […] Hypothetically, up-regulation of the activities of these proteases using different active candidates could be utilized to increase the rate of shedding of dead skin, thus providing a natural means for skin exfoliation. To this end, the enzymatic activity of a member of the KLK family, recombinant human (rh) KLK5, was monitored following pre-incubation with actives and measuring the rate of peptide bond cleavage of a synthetic substrate.
Enzymatic activity of KLK5 was measured by incubating recombinant human (rh) KLK5 protease (R&D Systems, Cat No. 1108-SE) with a specific fluorogenic peptide substrate Boc-V-P-R-AMC (R& D Systems, Cat No. ES011). The substrate is conjugated to a quenched fluorescent group. Upon cleavage of the adjacent peptide bond, the fluorescent signal is released, resulting in a measurable emission at 535 nm when excited at 340 nm wavelength. Increase in fluorescence reading indicates an increase in rhKLK5 activity. The test compounds were reacted with recombinant rhKLK5 protease for 60 seconds followed by addition of Boc-V-P-R-AMC Fluorogenic Peptide Substrate. After 60 seconds of incubation, fluorescence was measured at 340 nm (Excitation wavelength) and […] (Emission wavelength) every 1 minute for 7 minutes. Rate (kinetics) of enzyme activity was calculated as follows: Rate of enzyme activity=Change of fluorescent reading (after background correction)/Change of reaction time (min). Percent change of activity due to a test compound was calculated by comparing rate of enzyme activity in the presence of the test compound to that of a control without the test compound and statistical significance was calculated using a t-test. Additionally, the rate of activity of the compounds was compared to that of salicylic acid.

[2] = Skin PAMPA parallel artificial membrane penetration assay; format: in vitro ADME; details: donor pH 4.25, acceptor pH 7.4, 50 nM, two hours incubation; relative to salicylic acid
Experimental: Several salicylic acid derivatives were assessed for their ability to penetrate skin. Each of the compounds was formulated in an aqueous buffer, with a final pH of 4.25 at a concentration of 50 nM. The skin permeability of the compounds was measured using a high throughput transdermal permeability model, the parallel artificial membrane penetration assay (Skin PAMPA™), which uses a skin mimetic artificial membrane that simulates the barrier properties of the strateum corneum.
Briefly, the Skin PAMPA™ assay is a sandwich assay that utilizes two 96-well plate assemblies, one of which acts as the acceptor chambers (comprising a buffer), and one of which acts as the donor chambers (comprising a buffer and the compound to be tested). […] After an incubation period, the donor and acceptor chambers are analyzed for the amount of compound present.
In the current experiments, the acceptor chamber included an acceptor solution made from Prisma™ HT buffer solution (Pion, Inc.) that was adjusted to a pH of 7.4±0.05 using 1.0 M NaOH, and the donor chamber included a donor solution made from Prisma™ HT buffer solution (Pion, Inc.) that was adjusted to a pH of 4.25±0.05 using 1.0 M NaOH. […] Effective permeability was then calculated by the same method as Sinko et al., Eur. J. Pharm. […]

SMILES | KLK5 activity compared to that of salicylic acid [1] | stimulation of KLK5 enzymatic activity [1] | skin permeability (effective permeability) [2]
CC(C)c1cc(O)c(C(=O)O)c(C(C)C)c1 [Compound A, 4,6-diisopropyl salicylic acid] | superior KLK5 activity as compared to salicylic acid | potent stimulators of KLK5 | highest permeability
CC(C)(C)c1cc(O)c(C(=O)O)c(C(C)(C)C)c1 [Compound B, 4,6-di-tert-butyl salicylic acid] | superior KLK5 activity as compared to salicylic acid | potent stimulators of KLK5 | highest permeability
